These results are taken from the OligoGym collection.

The target in this series is SNHG14. Particulars: ASO.
Where [1] appears, read: Mouse Primary Neuronal Cell, 0.005 µM.

After the bases stand the sugars from the 5' end (letter, count) and the backbone: PS all phosphorothioate, else s phosphorothioate and o phosphodiester by linkage. Methylation of C is not given here. l = locked nucleic acid (LNA); d = 2'-deoxy (DNA)

For “TTTTTATACCTTTCTTTAAC (sugars l1 d12 l1 d2 l4, PS)”, the target mRNA inhibition (Human Neuronal Cell, 7.5 µM) was 43%. Still for that read-out and setting: the result for “GCACATTCTTTCTATACC (sugars ldldldddddddddddll, PS)” reads 61%.

As to CAAACCTACGTCTCTC (sugars l2 d10 l4, PS), the target mRNA inhibition was found to be 31% (Human Neuronal Cell, 0.2 µM) and 26% (Human Neuronal Cell, 1 µM). Regarding “TTTATTTCCATTTATTTTC (sugars l5 d7 l1 d3 l3, PS)”, the target mRNA inhibition (Human Neuronal Cell, 7.5 µM) is 55%. On to “AGTTCTACTATACTTTC (sugars l3 d10 l1 d1 l2, PS)”, for which the target mRNA inhibition (Human Neuronal Cell, 7.5 µM) turned out to be 59%.

Turning to CCTCAATACTCTACTT (sugars l4 d10 l2, PS), the target mRNA inhibition is 43% (Human Neuronal Cell, 0.2 µM) and 54% (Human Neuronal Cell, 1 µM). Consider “TTATAGCCATTCTATCT (sugars lddlddddddddlldll, PS)”, for which the target mRNA inhibition (Human Neuronal Cell, 7.5 µM) turned out to be 25%.

With “TTCTGTATACACCATCC (sugars l1 d13 l3, PS)”, the target mRNA inhibition (Human Neuronal Cell, 7.5 µM) was found to be 59%. For the sequence CAGTTTAAATTCACAC (sugars l3 d10 l3, PS), the target mRNA inhibition runs as follows: (Human Neuronal Cell, 0.2 µM) 34%; (Human Neuronal Cell, 1 µM) 46%. With “TTACCTACATCTCATAC (sugars l3 d11 l3, PS)”, the target mRNA inhibition is 0% (Human Neuronal Cell, 0.2 µM); 5% (Human Neuronal Cell, 1 µM); 21% (Human Neuronal Cell, 5 µM); 91.3% under setting [1]. “TTTACACTTAATTATACTTC (sugars lllddldddddddlldllll, PS)”: the target mRNA inhibition (Human Neuronal Cell, 7.5 µM) worked out at 15%.

As for CCCTTATAGTTATTAA (sugars l3 d10 l3, PS), the target mRNA inhibition runs as follows: (Human Neuronal Cell, 0.2 µM) 26%; (Human Neuronal Cell, 1 µM) 13%. On to “AATTATTTATACACCATCAT (sugars lddddldddddddlldldll, PS)”, for which the target mRNA inhibition (Human Neuronal Cell, 7.5 µM) amounted to 60%.

Turning to “TTATAGCCATTCTATCT (sugars l3 d8 l1 d3 l2, PS)”, the target mRNA inhibition (Human Neuronal Cell, 7.5 µM) came out at 58%. Same read-out and setting: next, “ATATTGATTCAATTCCC (sugars lddllddddddlddlll, PS)”: 62%. ATCCCTTTGTAATCAT (sugars l4 d10 l2, PS): the target mRNA inhibition runs as follows: (Human Neuronal Cell, 0.2 µM) 33%; (Human Neuronal Cell, 1 µM) 28%. With “GTTCTACTATACTTTCCT (sugars l1 d15 l2, PS)”, under “Human Neuronal Cell, 7.5 µM”, the target mRNA inhibition was -8%. Take CATTTACAAGCACATA (sugars l2 d10 l4, PS): the target mRNA inhibition came to 43% (Human Neuronal Cell, 0.2 µM) and 37% (Human Neuronal Cell, 1 µM). Taken in the same sequence, the figures for TTATACCCTTTCCAAT (sugars l2 d10 l4, PS) were 40% and 60%.

Consider CCACCTAAGACCTCAA (sugars l2 d10 l4, PS), for which the target mRNA inhibition was found to be 53% (Human Neuronal Cell, 0.2 µM) and 60% (Human Neuronal Cell, 1 µM). On to “TTACACTTAATTATACTTCC (sugars ldldddlddddddddlddll, PS)”, for which the target mRNA inhibition (Human Neuronal Cell, 7.5 µM) was 64%. For “TTTTTTTCTTACTATCTTCA (sugars ldlddddddddddlddddll, PS)”, for the setting “Human Neuronal Cell, 7.5 µM”, the target mRNA inhibition came to 46%.

For the sequence “TCTTACTCTGACTTTCC (sugars l2 d12 l3, PS)”, the target mRNA inhibition (Human Neuronal Cell, 0.2 µM) is 68% and the target mRNA inhibition (Human Neuronal Cell, 1 µM) turned out to be 71%. As to AAACTGTACACCTACT (sugars l2 d10 l4, PS), the target mRNA inhibition worked out at 31% (Human Neuronal Cell, 0.2 µM) and 44% (Human Neuronal Cell, 1 µM).

In the case of ACAACTTCTATCATAC (sugars l3 d10 l3, PS), the target mRNA inhibition stood at 44% (Human Neuronal Cell, 0.2 µM) and 55% (Human Neuronal Cell, 1 µM). Consider “AAATTTCCAAACCTTTC (sugars l2 d11 l4, PS)”, for which the target mRNA inhibition reads like this: (Human Neuronal Cell, 0.2 µM) 42%; (Human Neuronal Cell, 1 µM) 53%.

On to “AGTCCTTCCTTTAACCA (sugars l2 d13 l2, PS)”, for which the target mRNA inhibition is, setting by setting: (Human Neuronal Cell, 0.2 µM) 21%; (Human Neuronal Cell, 1 µM) 41%.

Take “GTTTCCATCTACTATTAAT (sugars llddlddddddddddldll, PS)”: the target mRNA inhibition (Human Neuronal Cell, 7.5 µM) amounted to 59%. On to TTACCAATAGTTACCT (sugars l3 d10 l3, PS), for which the target mRNA inhibition by setting is: (Human Neuronal Cell, 0.2 µM) 33%; (Human Neuronal Cell, 1 µM) 48%.

Consider “TACTAAACATACACATA (sugars l4 d11 l2, PS)”, for which the target mRNA inhibition turned out to be 9% (Human Neuronal Cell, 0.2 µM) and 25% (Human Neuronal Cell, 1 µM).

“CAACATTATTAACCACCTT (sugars l1 d14 l4, PS)”: for the setting “Human Neuronal Cell, 7.5 µM”, the target mRNA inhibition is 47%. On the same count and under the same terms, the result for “TTTCCATTTATTTCCATTTA (sugars lddddldddddddddlddll, PS)” reads 44%; that for “AGTTCTACTATACTTTC (sugars l3 d1 l1 d10 l2, PS)”, 64%. Consider “GTTACCTACATCTCATA (sugars l2 d11 l4, PS)”, for which the target mRNA inhibition (Human Neuronal Cell, 0.2 µM) was -4%; the target mRNA inhibition (Human Neuronal Cell, 1 µM) worked out at 10%; the target mRNA inhibition (Human Neuronal Cell, 5 µM) stood at 21%; the target mRNA inhibition under setting [1] amounted to 92%. Turning to TACATCTCATACTTGC (sugars l4 d10 l2, PS), under setting [1], the target mRNA inhibition came to 97%. As to “TGTCATCTAACTTCTTA (sugars l4 d11 l2, PS)”, the target mRNA inhibition was found to be 45% (Human Neuronal Cell, 0.2 µM) and 38% (Human Neuronal Cell, 1 µM).
